Reference: PubChem BioAssay AID1918946 (Molecular Pharmacology Branch, DTP, NCI, 2023)

Test system: 885512-296-R-J2-PDC complex spheroid viability
Test: Anticancer human tumor 885512-296-R-J2-PDC patient-derived breast carcinoma cell line growth inhibition
Settings: for IC50: curve of first compound; for viability, T/C: stronger effect = lower value
Procedure, shortened: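 Drug combinations with the LSD1 inhibitor iadademstat tested on tumor cells co-cultured as spheroids with endothelial cells and mesenchymal stem cells. Concentrations descended in half-log increments from clinical Cmax or 10 microM.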

[1] = second compound 0.1 µM, first compound 0.0316 µM
[2] = second compound 0.1 µM, first compound 0.1 µM
[3] = second compound 0.1 µM, first compound 0.316 µM
[4] = second compound 0.1 µM, first compound 1 µM
[5] = second compound 0.1 µM, first compound 3.16 µM
[6] = second compound 0.1 µM, first compound 10 µM
[7] = second compound 0.316 µM, first compound 0.0316 µM
[8] = second compound 0.316 µM, first compound 0.1 µM
[9] = second compound 0.316 µM, first compound 0.316 µM
[10] = second compound 0.316 µM, first compound 1 µM
[11] = second compound 0.316 µM, first compound 3.16 µM
[12] = second compound 0.316 µM, first compound 10 µM
[13] = second compound 1 µM, first compound 0.0316 µM
[14] = second compound 1 µM, first compound 0.1 µM
[15] = second compound 1 µM, first compound 0.316 µM
[16] = second compound 1 µM, first compound 1 µM
[17] = second compound 1 µM, first compound 3.16 µM
[18] = second compound 1 µM, first compound 10 µM
[19] = second compound 3.16 µM, first compound 0.0316 µM
[20] = second compound 3.16 µM, first compound 0.1 µM
[21] = second compound 3.16 µM, first compound 0.316 µM
[22] = second compound 3.16 µM, first compound 1 µM
[23] = second compound 3.16 µM, first compound 3.16 µM
[24] = second compound 3.16 µM, first compound 10 µM
[25] = second compound 10 µM, first compound 0.0316 µM
[26] = second compound 10 µM, first compound 0.1 µM
[27] = second compound 10 µM, first compound 0.316 µM
[28] = second compound 10 µM, first compound 1 µM
[29] = second compound 10 µM, first compound 3.16 µM
[30] = second compound 10 µM, first compound 10 µM
[31] = second compound 0.1 µM, first compound 0.00316 µM
[32] = second compound 0.1 µM, first compound 0.01 µM
[33] = second compound 0.316 µM, first compound 0.00316 µM
[34] = second compound 0.316 µM, first compound 0.01 µM
[35] = second compound 1 µM, first compound 0.00316 µM
[36] = second compound 1 µM, first compound 0.01 µM
[37] = second compound 3.16 µM, first compound 0.00316 µM
[38] = second compound 3.16 µM, first compound 0.01 µM
[39] = second compound 10 µM, first compound 0.00316 µM
[40] = second compound 10 µM, first compound 0.01 µM
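Also: spheroids exposed to agents for 7 days before viability read.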

Row | Structure (SMILES) | IC50 (second compound 0.1 µM) | IC50 (second compound 0.316 µM) | IC50 (second compound 1 µM) | IC50 (second compound 3.16 µM) | IC50 (second compound 10 µM) | viability, T/C [1] | viability, T/C [2] | viability, T/C [3] | viability, T/C [4] | viability, T/C [7] | viability, T/C [8] | viability, T/C [9] | viability, T/C [10] | viability, T/C [13] | viability, T/C [14] | viability, T/C [15] | viability, T/C [16] | viability, T/C [19] | viability, T/C [20] | viability, T/C [21] | further results
1 | CC(C)c1c(-c2ccccc2)nc2c(C#N)c[nH]n2c1=O + NC1CCC(NC2CC2c2ccccc2)CC1 | > 10000 nM | > 10000 nM | > 10000 nM | > 10000 nM | > 10000 nM | 121% | 123% | 137% | 128% | 133% | 126% | 137% | 131% | 135% | 114% | 129% | 123% | 111% | 122% | 120% | viability, T/C [5]: 116%; viability, T/C [6]: 119%; viability, T/C [11]: 118%; viability, T/C [12]: 113%; viability, T/C [17]: 148%; viability, T/C [18]: 110%; viability, T/C [22]: 145%; viability, T/C [23]: 115%; viability, T/C [24]: 118%; viability, T/C [25]: 99.3%; viability, T/C [26]: 85.5%; viability, T/C [27]: 97.2%; viability, T/C [28]: 109%; viability, T/C [29]: 104%; viability, T/C [30]: 114%
2 | CC1COCCN1c1cc(-c2ccnn2C)c2ccnc(-c3ccn[nH]3)c2n1 (stereo not given) + NC1CCC(NC2CC2c2ccccc2)CC1 | < 3.16 nM | < 3.16 nM | < 3.16 nM | < 3.16 nM | < 3.16 nM | 9.16% | 5.02% | 7.43% | 11.5% | 4.73% | 4.6% | 6.77% | 5.15% | 5.72% | 5.22% | 4.61% | 8.49% | 3.3% | 6.46% | 4.63% | viability, T/C [31]: 42%; viability, T/C [32]: 8.7%; viability, T/C [33]: 42%; viability, T/C [34]: 10.9%; viability, T/C [35]: 38.8%; viability, T/C [36]: 10.6%; viability, T/C [37]: 38.8%; viability, T/C [38]: 7.56%; viability, T/C [22]: 4.98%; viability, T/C [39]: 23.8%; viability, T/C [40]: 5.72%; viability, T/C [25]: 3.24%; viability, T/C [26]: 2.51%; viability, T/C [27]: 2.18%; viability, T/C [28]: 2.8%
3 | COc1ccc([C@@H](O)c2cc(-c3ncnc4cc(N5CCOCC5)ccc34)c(F)cc2Cl)nn1 + NC1CCC(NC2CC2c2ccccc2)CC1 | 3530 nM | 3000 nM | 2660 nM | 3230 nM | 2190 nM | 114% | 104% | 90.3% | 91.8% | 128% | 119% | 101% | 85.2% | 142% | 102% | 102% | 89.8% | 117% | 109% | 105% | viability, T/C [5]: 50.1%; viability, T/C [6]: 12.1%; viability, T/C [11]: 46.3%; viability, T/C [12]: 11.4%; viability, T/C [17]: 36.6%; viability, T/C [18]: 9.41%; viability, T/C [22]: 92.8%; viability, T/C [23]: 49.7%; viability, T/C [24]: 10.4%; viability, T/C [25]: 130%; viability, T/C [26]: 94.9%; viability, T/C [27]: 87.2%; viability, T/C [28]: 84.3%; viability, T/C [29]: 35%; viability, T/C [30]: 5.65%
4 | O=C(C=Cn1cnc(-c2cc(C(F)(F)F)cc(C(F)(F)F)c2)n1)NNc1cnccn1 + NC1CCC(NC2CC2c2ccccc2)CC1 | < 3.16 nM | < 3.16 nM | < 3.16 nM | < 3.16 nM | < 3.16 nM | 7% | 5.05% | 5.84% | 8.68% | 4.07% | 1.21% | 8.2% | 6.75% | 1.46% | 1.03% | 3.55% | 0.74% | 1.67% | 0.99% | 0.76% | viability, T/C [31]: 34%; viability, T/C [32]: 7.13%; viability, T/C [33]: 36.5%; viability, T/C [34]: 6.98%; viability, T/C [35]: 47.5%; viability, T/C [36]: 6.6%; viability, T/C [37]: 26.8%; viability, T/C [38]: 6.99%; viability, T/C [22]: 3.58%; viability, T/C [39]: 26.8%; viability, T/C [40]: 7.4%; viability, T/C [25]: 1.17%; viability, T/C [26]: 0.87%; viability, T/C [27]: 2.75%; viability, T/C [28]: 0.69%
